One may read the EC50 as the concentration at which the effect is half-maximal. A lower EC50 goes with higher potency in that assay.

Molecules are shown by their SMILES.

This passage reports EC50 results from patent publication US11254663B2 (BRISTOL-MYERS SQUIBB COMPANY, priority 2019, dated 2022).

Chain of FXR (Q96RI1 262-486): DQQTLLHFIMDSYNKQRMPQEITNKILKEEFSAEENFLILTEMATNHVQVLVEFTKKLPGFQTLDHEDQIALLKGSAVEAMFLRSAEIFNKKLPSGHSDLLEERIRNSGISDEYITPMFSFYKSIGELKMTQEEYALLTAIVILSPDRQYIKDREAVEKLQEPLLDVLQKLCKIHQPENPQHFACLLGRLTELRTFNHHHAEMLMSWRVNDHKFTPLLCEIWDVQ

This assay has as its target FXR (Homo sapiens (Human), UniProt Q96RI1). Kind of assay: FXR EC50 (FXR agonist potency reported with each Example). It is filed as cell-based.
Turning to `Cn1nc(C2CC2)cc1C12CCC(CN(C(=O)C34CC(F)(C3)C4)c3cccc(-c4noc(C5(C)CC5)n4)c3)(CC1)CC2` [Example 166, N-((4-(3-cyclopropyl-1-methyl-1H-pyrazol-5-yl)bicyclo[2.2.2]octan-1-yl)methyl)-3-fluoro-N-(3-(5-(1-methylcyclopropyl)-1,2,4-oxadiazol-3-yl)phenyl)bicyclo[1.1.1]pentane-1-carboxamide], the EC50 was found to be 0.082 µM.

In the case of `Cn1nc(C23CCC(CN(C(=O)C45CC(F)(C4)C5)c4cccc(-c5noc(C(C)(C)C)n5)c4)(CC2)CC3)cc1C1CC1` [Example 167, N-(3-(5-(tert-butyl)-1,2,4-oxadiazol-3-yl)phenyl)-N-((4-(5-cyclopropyl-1-methyl-1H-pyrazol-3-yl)bicyclo[2.2.2]octan-1-yl)methyl)-3-fluorobicyclo[1.1.1]pentane-1-carboxamide], the EC50 is 0.069 µM.

With `Cn1nc(C23CCC(CN(C(=O)C45CC(F)(C4)C5)c4cccc(-c5noc(C(F)F)n5)c4)(CC2)CC3)cc1C1CC1` [Example 168, N-((4-(5-cyclopropyl-1-methyl-1H-pyrazol-3-yl)bicyclo[2.2.2]octan-1-yl)methyl)-N-(3-(5-(difluoromethyl)-1,2,4-oxadiazol-3-yl)phenyl)-3-fluorobicyclo[1.1.1]pentane-1-carboxamide], the midpoint of the response, the EC50, lay at 0.111 µM.

Turning to `CC(C)c1nc(-c2cccc(N(CC34CCC(c5cc(C6CC6)n(C)n5)(CC3)CC4)C(=O)C34CC(F)(C3)C4)c2)no1` [Example 169, N-((4-(5-cyclopropyl-1-methyl-1H-pyrazol-3-yl)bicyclo[2.2.2]octan-1-yl)methyl)-3-fluoro-N-(3-(5-isopropyl-1,2,4-oxadiazol-3-yl)phenyl)bicyclo[1.1.1]pentane-1-carboxamide], the EC50 was 0.098 µM.

In turn, `Cn1nc(C23CCC(CN(C(=O)C45CC(F)(C4)C5)c4cccc(-c5noc(C6CC6)n5)c4)(CC2)CC3)cc1C1CC1` [Example 170, N-(3-(5-cyclopropyl-1,2,4-oxadiazol-3-yl)phenyl)-N-((4-(5-cyclopropyl-1-methyl-1H-pyrazol-3-yl)bicyclo[2.2.2]octan-1-yl)methyl)-3-fluorobicyclo[1.1.1]pentane-1-carboxamide] yielded an EC50 of 0.074 µM.

`CC(C)(C)c1noc(C23CCC(CN(C(=O)C45CC(F)(C4)C5)c4cccc(-c5noc(C6CC6)n5)c4)(CC2)CC3)n1` [Example 171, N-((4-(3-(tert-butyl)-1,2,4-oxadiazol-5-yl)bicyclo[2.2.2]octan-1-yl)methyl)-N-(3-(5-cyclopropyl-1,2,4-oxadiazol-3-yl)phenyl)-3-fluorobicyclo[1.1.1]pentane-1-carboxamide]: the EC50 worked out at 0.0376 µM.

`O=C(N(CC12CCC(c3nc(C(F)F)no3)(CC1)CC2)c1cccc(-c2noc(C3CC3)n2)c1)C12CC(F)(C1)C2` [Example 172, N-(3-(5-cyclopropyl-1,2,4-oxadiazol-3-yl)phenyl)-N-((4-(3-(difluoromethyl)-1,2,4-oxadiazol-5-yl)bicyclo[2.2.2]octan-1-yl)methyl)-3-fluorobicyclo[1.1.1]pentane-1-carboxamide]: the midpoint of the response, the EC50, lay at 0.154 µM.

`CC1(c2nc(-c3cccc(N(CC45CCC(c6nc(C(F)F)no6)(CC4)CC5)C(=O)C45CC(F)(C4)C5)c3)no2)COC1` [Example 173, N-((4-(3-(difluoromethyl)-1,2,4-oxadiazol-5-yl)bicyclo[2.2.2]octan-1-yl)methyl)-3-fluoro-N-(3-(5-(3-methyloxetan-3-yl)-1,2,4-oxadiazol-3-yl)phenyl)bicyclo[1.1.1]pentane-1-carboxamide] had a 50% effective concentration (EC50) of 0.139 µM.

`CC(C)(C)c1noc(C23CCC(CN(C(=O)C45CC(F)(C4)C5)c4cccc(-c5noc(C6(C)COC6)n5)c4)(CC2)CC3)n1` [Example 174, N-((4-(3-(tert-butyl)-1,2,4-oxadiazol-5-yl)bicyclo[2.2.2]octan-1-yl)methyl)-3-fluoro-N-(3-(5-(3-methyloxetan-3-yl)-1,2,4-oxadiazol-3-yl)phenyl)bicyclo[1.1.1]pentane-1-carboxamide] gave an EC50 of 0.04 µM.

Compound `CC(C)c1noc(C23CCC(CN(C(=O)C45CC(F)(C4)C5)c4cccc(-c5noc(C6(C)CC6)n5)c4)(CC2)CC3)n1` [Example 175, 3-fluoro-N-((4-(3-isopropyl-1,2,4-oxadiazol-5-yl)bicyclo[2.2.2]octan-1-yl)methyl)-N-(3-(5-(1-methylcyclopropyl)-1,2,4-oxadiazol-3-yl)phenyl)bicyclo[1.1.1]pentane-1-carboxamide] yielded an EC50 of 0.054 µM.

Compound `CC(C)(C)c1noc(C23CCC(CN(C(=O)C45CC(F)(C4)C5)c4cccc(-c5noc(C6(C)CC6)n5)c4)(CC2)CC3)n1` [Example 176, N-((4-(3-(tert-butyl)-1,2,4-oxadiazol-5-yl)bicyclo[2.2.2]octan-1-yl)methyl)-3-fluoro-N-(3-(5-(1-methylcyclopropyl)-1,2,4-oxadiazol-3-yl)phenyl)bicyclo[1.1.1]pentane-1-carboxamide] showed an EC50 of 0.024 µM.

In the case of `CC(C)(C)c1nc(C23CCC(CN(C(=O)C45CC(F)(C4)C5)c4cccc(-c5noc(C6(C)CC6)n5)c4)(CC2)CC3)no1` [Example 177, N-((4-(5-(tert-butyl)-1,2,4-oxadiazol-3-yl)bicyclo[2.2.2]octan-1-yl)methyl)-3-fluoro-N-(3-(5-(1-methylcyclopropyl)-1,2,4-oxadiazol-3-yl)phenyl)bicyclo[1.1.1]pentane-1-carboxamide], the EC50 worked out at 0.033 µM.

The compound `CC1(c2nc(-c3cccc(N(CC45CCC(c6noc(C(F)F)n6)(CC4)CC5)C(=O)C45CC(F)(C4)C5)c3)no2)CC1` [Example 178, N-((4-(5-(difluoromethyl)-1,2,4-oxadiazol-3-yl)bicyclo[2.2.2]octan-1-yl)methyl)-3-fluoro-N-(3-(5-(1-methylcyclopropyl)-1,2,4-oxadiazol-3-yl)phenyl)bicyclo[1.1.1]pentane-1-carboxamide] yielded an EC50 of 0.073 µM.

In turn, `CC(F)(F)c1nc(C23CCC(CN(C(=O)C45CC(F)(C4)C5)c4cccc(-c5noc(C6(C)CC6)n5)c4)(CC2)CC3)no1` [Example 179, N-((4-(5-(1,1-difluoroethyl)-1,2,4-oxadiazol-3-yl)bicyclo[2.2.2]octan-1-yl)methyl)-3-fluoro-N-(3-(5-(1-methylcyclopropyl)-1,2,4-oxadiazol-3-yl)phenyl)bicyclo[1.1.1]pentane-1-carboxamide] came in with an EC50 of 0.058 µM.

Compound `CC1(c2nc(-c3cccc(N(CC45CCC(c6noc(C7(C)COC7)n6)(CC4)CC5)C(=O)C45CC(F)(C4)C5)c3)no2)CC1` [Example 180, 3-fluoro-N-(3-(5-(1-methylcyclopropyl)-1,2,4-oxadiazol-3-yl)phenyl)-N-((4-(5-(3-methyloxetan-3-yl)-1,2,4-oxadiazol-3-yl)bicyclo[2.2.2]octan-1-yl)methyl) bicyclo[1.1.1]pentane-1-carboxamide] came in with a half-maximal effective concentration (EC50) of 0.083 µM.

For `CC(C)(C)c1nc(-c2cccc(N(CC34CCC(c5cnc(C(F)(F)F)nc5)(CC3)OC4)C(=O)C34CC(F)(C3)C4)c2)no1` [Example 181, N-(3-(5-(tert-butyl)-1,2,4-oxadiazol-3-yl)phenyl)-3-fluoro-N-((1-(2-(trifluoromethyl)pyrimidin-5-yl)-2-oxabicyclo[2.2.2]octan-4-yl)methyl)bicyclo[1.1.1]pentane-1-carboxamide], the EC50 is 0.828 µM.

For the compound `O=C(N(CC12CCC(c3cnc(C(F)(F)F)nc3)(CC1)OC2)c1cccc(-c2noc(C(F)F)n2)c1)C12CC(F)(C1)C2` [Example 182, N-(3-(5-(difluoromethyl)-1,2,4-oxadiazol-3-yl)phenyl)-3-fluoro-N-((1-(2-(trifluoromethyl)pyrimidin-5-yl)-2-oxabicyclo[2.2.2]octan-4-yl)methyl) bicyclo[1.1.1]pentane-1-carboxamide], the EC50 was determined as 2 µM.

Take `CC(C)(C)c1nc(-c2cccc(N(CC34CCC(c5noc(C(C)(C)C)n5)(CC3)CC4)C(=O)C34CC(F)(C3)C4)c2)no1` [Example 183, N-((4-(5-(tert-butyl)-1,2,4-oxadiazol-3-yl)bicyclo[2.2.2]octan-1-yl)methyl)-N-(3-(5-(tert-butyl)-1,2,4-oxadiazol-3-yl)phenyl)-3-fluorobicyclo[1.1.1]pentane-1-carboxamide]: the EC50 turned out to be 0.018 µM.

In turn, `O=C(N(CC12CCC(c3noc(C(F)F)n3)(CC1)CC2)c1cccc(-c2noc(C(F)F)n2)c1)C12CC(F)(C1)C2` [Example 184, N-((4-(5-(difluoromethyl)-1,2,4-oxadiazol-3-yl)bicyclo[2.2.2]octan-1-yl)methyl)-N-(3-(5-(difluoromethyl)-1,2,4-oxadiazol-3-yl)phenyl)-3-fluorobicyclo[1.1.1]pentane-1-carboxamide] registered an EC50 of 0.058 µM.

Compound `O=C(N(CC12CCC(c3ccc(C(F)(F)F)cn3)(CC1)CC2)c1cccc(-c2noc(C3CC3)n2)c1)C12CC(F)(C1)C2` [Example 185, N-(3-(5-cyclopropyl-1,2,4-oxadiazol-3-yl)phenyl)-3-fluoro-N-((4-(5-(trifluoromethyl)pyridin-2-yl)bicyclo[2.2.2]octan-1-yl)methyl)bicyclo[1.1.1]pentane-1-carboxamide] returned an EC50 of 0.508 µM.

In turn, `CC1(c2nc(-c3cccc(N(CC45CCC(c6ccc(C(F)(F)F)cn6)(CC4)CC5)C(=O)C45CC(F)(C4)C5)c3)no2)CC1` [Example 186, 3-fluoro-N-(3-(5-(1-methylcyclopropyl)-1,2,4-oxadiazol-3-yl)phenyl)-N-((4-(5-(trifluoromethyl)pyridin-2-yl)bicyclo[2.2.2]octan-1-yl)methyl)bicyclo[1.1.1]pentane-1-carboxamide] registered an EC50 of 0.625 µM.

Turning to `CC(C)c1nc(-c2cccc(N(CC34CCC(c5ccc(C(F)(F)F)cn5)(CC3)CC4)C(=O)C34CC(F)(C3)C4)c2)no1` [Example 187, 3-fluoro-N-(3-(5-isopropyl-1,2,4-oxadiazol-3-yl)phenyl)-N-((4-(5-(trifluoromethyl)pyridin-2-yl)bicyclo[2.2.2]octan-1-yl)methyl)bicyclo[1.1.1]pentane-1-carboxamide], the EC50 is 0.605 µM.

As to `CC(C)(C)c1nc(-c2cccc(N(CC34CCC(c5ccc(C(F)(F)F)cn5)(CC3)CC4)C(=O)C34CC(F)(C3)C4)c2)no1` [Example 188, N-(3-(5-(tert-butyl)-1,2,4-oxadiazol-3-yl)phenyl)-3-fluoro-N-((4-(5-(trifluoromethyl)pyridin-2-yl)bicyclo[2.2.2]octan-1-yl)methyl)bicyclo[1.1.1]pentane-1-carboxamide], the EC50 was 0.304 µM.
